This is an account of results in PubChem BioAssay (NCI).

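Each compound was tested at five concentrations against cells in 96-well plates for 48 hours. TGI is the concentration that stops growth completely.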

For one assay, the system named is RPMI-8226 leukemia. Kind of assay: inhibition of tumour cell growth, NCI panel, 48 h.
As for `COc1ccc2c(C)cc(N/N=C(\C)C=O)nc2c1`, the TGI was found to be 22.9 µM.
For `S=c1sc2c(s1)SCCCCSCCCCSc1sc(=S)sc1SCCCCSCCCCS2`, the TGI is > 100 µM.
As for `COc1ccc2oc(=N)c(C(=O)NCc3ccccc3)cc2c1`, the TGI is > 100 µM.
Still for that read-out and setting: then `O=C1c2ccccc2S(=O)(=O)c2c1cccc2[N+](=O)[O-]`, with 5.94 µM.
With `O=C(CCCN1CCC2(CC1)OC(=O)N(c1ccccc1)C2=O)c1ccccc1`, the TGI was > 100 µM.
As to `O=C1c2c(ccc3c2CCCC3)CC12Cc1ccc3c(c1C2=O)CCCC3`, the TGI was > 100 µM.
In the case of `CCOC(CN=C=S)OCC`, the TGI was > 10 µM.
For `O=CC(=C(I)I)c1ccccc1`, the TGI was found to be 2.62 µM.
On to `O=C1C=C2C(=NC34CCCCC3C(c3ccccc3)C3=C(c5ccccc5CC3)N24)c2ccccc21` (stereo not drawn), for which the TGI was > 10 µM.
`COCCN(C(C)=O)C1CCC2(SCCS2)c2[nH]c3ccccc3c21` (stereo not drawn): the TGI is > 100 µM.
Consider `[N-]=[N+]=Nc1c(C=O)c(=O)n2c3c(cccc13)CCC2`, for which the TGI is > 22.3 µM.
As to `NC(=O)NNc1nc2ccccc2c(=O)n1NC(=O)C(=O)Nc1ccc(Cl)cc1Cl`, the TGI is > 100 µM.
The same measure, in the same setting: then `COC(O)C(=O)c1c2c(cc3c1CC1(Cc4cc5c(cc4C1)CCC5)C3)CCC2` (stereo not drawn), with 30 µM; and `CCC1NC(=O)C1NC(=O)OC` (stereo not drawn), with > 100 µM.

A further assay relates to HCT-116 colon. Description: inhibition of tumour cell growth, NCI panel, 48 h.
In the case of `COc1ccc2c(C)cc(N/N=C(\C)C=O)nc2c1`, the TGI amounted to 26.5 µM.
Still for that read-out and setting: as for `S=c1sc2c(s1)SCCCCSCCCCSc1sc(=S)sc1SCCCCSCCCCS2`, the figure is > 100 µM; as for `COc1ccc2oc(=N)c(C(=O)NCc3ccccc3)cc2c1`, > 100 µM.
For `O=C1c2ccccc2S(=O)(=O)c2c1cccc2[N+](=O)[O-]`, the TGI was 2.63 µM.
Consider `O=C(CCCN1CCC2(CC1)OC(=O)N(c1ccccc1)C2=O)c1ccccc1`, for which the TGI was > 100 µM.
Take `O=C1c2c(ccc3c2CCCC3)CC12Cc1ccc3c(c1C2=O)CCCC3`: the TGI is > 100 µM.
Same read-out and setting: as for `CCOC(CN=C=S)OCC`, the figure is > 10 µM.
The same measure, in the same setting: as for `O=CC(=C(I)I)c1ccccc1`, the figure is 2.78 µM; as for `O=C1C=C2C(=NC34CCCCC3C(c3ccccc3)C3=C(c5ccccc5CC3)N24)c2ccccc21` (stereo not drawn), > 10 µM.
Take `COCCN(C(C)=O)C1CCC2(SCCS2)c2[nH]c3ccccc3c21` (stereo not drawn): the TGI is > 100 µM.
As for `[N-]=[N+]=Nc1c(C=O)c(=O)n2c3c(cccc13)CCC2`, the TGI came to 10.9 µM.
As for `NC(=O)NNc1nc2ccccc2c(=O)n1NC(=O)C(=O)Nc1ccc(Cl)cc1Cl`, the TGI was > 100 µM.
As for `COC(O)C(=O)c1c2c(cc3c1CC1(Cc4cc5c(cc4C1)CCC5)C3)CCC2` (stereo not drawn), the TGI is 20.9 µM.
For the compound `CCC1NC(=O)C1NC(=O)OC` (stereo not drawn), the TGI was > 100 µM.

In another assay the test system is NCI/ADR-RES ovarian. Description: inhibition of tumour cell growth, NCI panel, 48 h.
`COc1ccc2c(C)cc(N/N=C(\C)C=O)nc2c1`: the TGI turned out to be 25.7 µM.
With `S=c1sc2c(s1)SCCCCSCCCCSc1sc(=S)sc1SCCCCSCCCCS2`, the TGI was > 100 µM.
`COc1ccc2oc(=N)c(C(=O)NCc3ccccc3)cc2c1` returned a TGI of 36.8 µM.
The compound `O=C1c2ccccc2S(=O)(=O)c2c1cccc2[N+](=O)[O-]` displayed a TGI of 6.55 µM.
For `O=C(CCCN1CCC2(CC1)OC(=O)N(c1ccccc1)C2=O)c1ccccc1`, the TGI is > 100 µM.
Consider `O=C1c2c(ccc3c2CCCC3)CC12Cc1ccc3c(c1C2=O)CCCC3`, for which the TGI was > 100 µM.
With `CCOC(CN=C=S)OCC`, the TGI is > 10 µM.
Still for that read-out and setting: then `O=CC(=C(I)I)c1ccccc1`, with > 38.5 µM; and `O=C1C=C2C(=NC34CCCCC3C(c3ccccc3)C3=C(c5ccccc5CC3)N24)c2ccccc21` (stereo not drawn), with > 10 µM.
With `COCCN(C(C)=O)C1CCC2(SCCS2)c2[nH]c3ccccc3c21` (stereo not drawn), the TGI was > 100 µM.
Turning to `[N-]=[N+]=Nc1c(C=O)c(=O)n2c3c(cccc13)CCC2`, the TGI is > 45.6 µM.
With `NC(=O)NNc1nc2ccccc2c(=O)n1NC(=O)C(=O)Nc1ccc(Cl)cc1Cl`, the TGI was > 100 µM.
For `COC(O)C(=O)c1c2c(cc3c1CC1(Cc4cc5c(cc4C1)CCC5)C3)CCC2` (stereo not drawn), the TGI is 34 µM.
Consider `CCC1NC(=O)C1NC(=O)OC` (stereo not drawn), for which the TGI is > 100 µM.

Another assay relates to SNB-75 CNS. Description: inhibition of tumour cell growth, NCI panel, 48 h.
`COc1ccc2c(C)cc(N/N=C(\C)C=O)nc2c1` came in with a TGI of 29.8 µM.
`S=c1sc2c(s1)SCCCCSCCCCSc1sc(=S)sc1SCCCCSCCCCS2`: the TGI came to 59.2 µM.
In turn, `COc1ccc2oc(=N)c(C(=O)NCc3ccccc3)cc2c1` registered a TGI of 35 µM.
Turning to `O=C1c2ccccc2S(=O)(=O)c2c1cccc2[N+](=O)[O-]`, the TGI is > 9.55 µM.
On the same count and under the same terms, as for `O=C(CCCN1CCC2(CC1)OC(=O)N(c1ccccc1)C2=O)c1ccccc1`, the figure is > 100 µM.
With `O=C1c2c(ccc3c2CCCC3)CC12Cc1ccc3c(c1C2=O)CCCC3`, the TGI was > 100 µM.
For `CCOC(CN=C=S)OCC`, the TGI was > 10 µM.
The same measure, in the same setting: as for `O=CC(=C(I)I)c1ccccc1`, the figure is 9.97 µM; as for `O=C1C=C2C(=NC34CCCCC3C(c3ccccc3)C3=C(c5ccccc5CC3)N24)c2ccccc21` (stereo not drawn), > 10 µM.
Consider `COCCN(C(C)=O)C1CCC2(SCCS2)c2[nH]c3ccccc3c21` (stereo not drawn), for which the TGI is > 100 µM.
In the case of `[N-]=[N+]=Nc1c(C=O)c(=O)n2c3c(cccc13)CCC2`, the TGI was 29.1 µM.
In the case of `NC(=O)NNc1nc2ccccc2c(=O)n1NC(=O)C(=O)Nc1ccc(Cl)cc1Cl`, the TGI was > 100 µM.
Regarding `COC(O)C(=O)c1c2c(cc3c1CC1(Cc4cc5c(cc4C1)CCC5)C3)CCC2` (stereo not drawn), the TGI was 31.6 µM.
The same measure, in the same setting: then `CCC1NC(=O)C1NC(=O)OC` (stereo not drawn), with > 100 µM.

A further assay relates to UACC-257 melanoma. Kind of assay: inhibition of tumour cell growth, NCI panel, 48 h.
Turning to `COc1ccc2c(C)cc(N/N=C(\C)C=O)nc2c1`, the TGI turned out to be 33.9 µM.
Still for that read-out and setting: as for `S=c1sc2c(s1)SCCCCSCCCCSc1sc(=S)sc1SCCCCSCCCCS2`, the figure is > 100 µM.
As for `COc1ccc2oc(=N)c(C(=O)NCc3ccccc3)cc2c1`, the TGI was > 100 µM.
On the same count and under the same terms, then `O=C1c2ccccc2S(=O)(=O)c2c1cccc2[N+](=O)[O-]`, with 4.76 µM; and `O=C(CCCN1CCC2(CC1)OC(=O)N(c1ccccc1)C2=O)c1ccccc1`, with > 100 µM; and `O=C1c2c(ccc3c2CCCC3)CC12Cc1ccc3c(c1C2=O)CCCC3`, with > 100 µM.
`CCOC(CN=C=S)OCC`: the TGI is > 10 µM.
In turn, `O=CC(=C(I)I)c1ccccc1` came in with a TGI of 8.05 µM.
Still for that read-out and setting: as for `O=C1C=C2C(=NC34CCCCC3C(c3ccccc3)C3=C(c5ccccc5CC3)N24)c2ccccc21` (stereo not drawn), the figure is > 10 µM; as for `COCCN(C(C)=O)C1CCC2(SCCS2)c2[nH]c3ccccc3c21` (stereo not drawn), > 100 µM.
In the case of `[N-]=[N+]=Nc1c(C=O)c(=O)n2c3c(cccc13)CCC2`, the TGI turned out to be 10 µM.
On the same count and under the same terms, then `NC(=O)NNc1nc2ccccc2c(=O)n1NC(=O)C(=O)Nc1ccc(Cl)cc1Cl`, with > 100 µM.
